Experimental data: patent US12030897B2, “Pyrrolo[2,1-f][1,2,4]triazine derivatives serving as selective HER2 inhibitors and application thereof” (MEDSHINE DISCOVERY INC., priority 2018, dated 2024)
Where “and” joins values, the source holds several entries; their conditions need not be identical. Identical values can stand only once. Like-named read-outs stand apart in the source and are kept apart here.

Experiments:
HER1 (ErbB1) = HER1 (ErbB1) (Homo sapiens (Human), UniProt P00533); test: In vitro enzyme activity, HER1 (ErbB1), [γ-33P]ATP filter assay; type: biochemical
HER1 (ErbB1), sequence (P00533 25-1210): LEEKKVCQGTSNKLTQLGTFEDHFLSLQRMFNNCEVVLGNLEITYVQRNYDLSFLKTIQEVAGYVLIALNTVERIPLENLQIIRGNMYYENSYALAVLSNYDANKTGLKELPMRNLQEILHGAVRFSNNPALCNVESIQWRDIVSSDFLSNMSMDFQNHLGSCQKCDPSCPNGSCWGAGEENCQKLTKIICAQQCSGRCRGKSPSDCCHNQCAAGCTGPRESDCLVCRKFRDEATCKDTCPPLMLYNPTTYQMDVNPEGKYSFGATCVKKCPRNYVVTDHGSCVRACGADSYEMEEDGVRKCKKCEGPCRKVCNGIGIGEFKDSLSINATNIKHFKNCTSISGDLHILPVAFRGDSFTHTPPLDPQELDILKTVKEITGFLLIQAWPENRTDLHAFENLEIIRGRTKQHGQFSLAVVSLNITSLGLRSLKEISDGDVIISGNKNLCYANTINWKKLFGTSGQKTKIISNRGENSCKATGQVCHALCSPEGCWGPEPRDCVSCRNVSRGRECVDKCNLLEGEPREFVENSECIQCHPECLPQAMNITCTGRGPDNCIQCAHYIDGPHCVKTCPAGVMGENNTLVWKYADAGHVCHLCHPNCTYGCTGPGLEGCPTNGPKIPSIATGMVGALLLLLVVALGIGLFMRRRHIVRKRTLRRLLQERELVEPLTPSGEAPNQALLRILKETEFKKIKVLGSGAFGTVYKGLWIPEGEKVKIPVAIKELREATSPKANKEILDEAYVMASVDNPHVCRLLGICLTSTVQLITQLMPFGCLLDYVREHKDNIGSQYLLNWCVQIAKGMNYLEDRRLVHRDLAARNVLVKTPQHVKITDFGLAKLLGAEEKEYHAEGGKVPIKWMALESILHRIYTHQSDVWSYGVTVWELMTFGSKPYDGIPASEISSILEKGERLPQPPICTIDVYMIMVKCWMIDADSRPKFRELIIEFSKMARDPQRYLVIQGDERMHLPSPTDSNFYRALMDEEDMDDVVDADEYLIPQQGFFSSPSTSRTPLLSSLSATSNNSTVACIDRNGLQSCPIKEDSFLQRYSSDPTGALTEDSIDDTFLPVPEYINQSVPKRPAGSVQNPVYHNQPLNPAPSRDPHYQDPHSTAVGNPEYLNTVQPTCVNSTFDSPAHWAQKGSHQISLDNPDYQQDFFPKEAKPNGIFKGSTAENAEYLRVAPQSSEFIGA
Description: (§1) The object of this test is to detect the in vitro inhibitory activity of the compound against HER1 (ErbB1), HER2 (ErbB2) and HER4 (ErbB4). The enzymes used in this test were human ErbB1, ErbB2 and ErbB4.
(§2) Experimental Steps and Methods (96-Well Plate):
(§3) 5-fold diluted tested compound buffer (5 μL), peptide substrate poly(Glu, Tyr) (4:1) (2.5 μL), ErbB (4-20 ng, 2.5 μL), MnCl2 (50 mM, 1.25 μL), dH2O (3.75 μL) and [γ-^33P]ATP (10 μL) were added, and incubated at 30° C. for 10 min. 3% phosphoric acid was added to terminate the reaction, and 10 μL of the specimen was transferred to Filtermate A. The filter was washed with 75 mM phosphoric acid for three times and methanol once, and transferred to a sealed plastic bag, and a scintillation fluid mixture (4 mL) was added, The intensity of the emitted photons was detected on the scintillation luminescence counter. The photon intensity of the enzyme sample was compared with the photon intensity of the internal control sample, and the level of photon intensity reflected the strength of the tyrosine kinase activity.

[1] = Pharmacokinetic properties in rats; type: in vivo; details: male, SD
Description: The tested compound was dissolved in 10% NMP/10% polyethylene glycol-15-hydroxystearate/80% water, vortexed and sonicated to prepare a 2.5 mg/mL clear solution, which was filtered through a millipore filter for use. Three male SD rats were administered intravenously with the candidate compound solution at a dose of 5 mg/kg. The tested compound was dissolved in 10% polyethylene glycol-15-hydroxystearate/90% water (50 mM citrate buffer, pH 3.0), adjusted to pH of about 3.5, vortexed and sonicated to prepare a 5 mg/ml clear solution, which was filtered through a millipore filter for use. Three male SD rats were administered orally with the candidate compound solution at a dose of 50 mg/kg. The whole-blood for a certain period of time was collected to prepare plasma. The drug concentration was analyzed by the LC-MS/MS method, and the pharmacokinetic parameters were calculated by the Phoenix WinNonlin software (Pharsight, USA).

[2] = Concentration of Example 4 in plasma, tumor tissue and brain tissue (NCI-N87 model, day 21); type: in vivo, BALB/c nude mice; details: BALB/c nude, mouse, 100 mg/kg; for concentration at 0.5 h: day 21, 0.5 h after last administration; for concentration at 1 h: day 21, 1 h after last administration; for concentration at 2 h: day 21, 2 h after last administration
Description: On day 21, the whole blood, tumor tissue, and brain tissue of two mice were collected 0.5 hour, 1 hour, and 2 hours after the last administration. The whole blood was centrifuged to prepare plasma, and the tumor tissue and brain tissue were homogenized to prepare tissue homogenate, and the drug concentration in plasma and tissue homogenate was analyzed by the LC-MS/MS method.

CYP3A4 = CYP3A4 (Homo sapiens (Human), UniProt P08684); test: Inhibition of human liver microsomal cytochrome P450 isoenzyme CYP3A4; type: in vitro ADME; details: human liver microsomes
CYP3A4, sequence (P08684 whole entry): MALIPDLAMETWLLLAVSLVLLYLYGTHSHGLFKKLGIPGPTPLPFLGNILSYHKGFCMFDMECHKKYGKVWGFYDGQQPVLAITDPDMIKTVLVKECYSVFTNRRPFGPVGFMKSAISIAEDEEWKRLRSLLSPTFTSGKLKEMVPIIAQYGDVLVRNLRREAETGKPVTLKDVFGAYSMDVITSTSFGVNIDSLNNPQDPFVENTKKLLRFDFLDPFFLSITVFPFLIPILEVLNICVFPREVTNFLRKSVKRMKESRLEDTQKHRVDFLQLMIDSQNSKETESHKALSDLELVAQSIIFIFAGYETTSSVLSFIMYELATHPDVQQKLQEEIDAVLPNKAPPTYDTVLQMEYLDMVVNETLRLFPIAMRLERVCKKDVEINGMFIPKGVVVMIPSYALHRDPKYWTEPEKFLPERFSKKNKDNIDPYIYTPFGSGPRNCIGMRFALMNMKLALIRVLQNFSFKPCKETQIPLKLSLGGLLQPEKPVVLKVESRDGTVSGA
Description: The object of this study was to evaluate the effect of Example 4 on the activities of five isoenzymes (CYP1A2, CYP2C9, CYP2C19, CYP2D6 and CYP3A4) of human liver microsomal cytochrome P450 (CYP) using an in vitro test system. The specific probe substrates of CYP450 isozymes were incubated with human liver microsomes and different concentrations of Example 4, and reduced nicotinamide adenine dinucleotide phosphate (NADPH) was added to initiate the reaction. After the reaction was completed, the samples were treated, and liquid chromatography tandem mass spectrometry (LC/MS/MS) was used to detect the metabolites produced by specific substrates.

[3] = test system: human breast cancer BT-474 cell subcutaneous xenograft tumor; test: In vivo efficacy, BT-474 subcutaneous xenograft tumor model; set-up: species or system BALB/c nude mice; details: BT-474 xenograft, 100 mg/kg
Description: Experiment object: to study the in vivo efficacy of the tested compound in human breast cancer BT-474 cell BALB/c nude mouse subcutaneous xenograft tumor model.
Experimental animals: female BALB/c nude mice, 6 to 8 weeks old, weight: 18 to 22 grams; Supplier Beijing Weitonglihua Laboratory Animal Technology Co., Ltd.
Human breast cancer BT474 cells were cultured in a monolayer in vitro. The culture conditions were: ATCC Hybri-Care Medium with 1.5 g/L sodium bicarbonate, 10% fetal bovine serum, 100 U/mL penicillin and 100 μg/mL streptomycin, and 37° C., 5% CO2 incubator. Conventional digestion treatment with pancreatin-EDTA for passage was carried out twice a week. When the cell saturation was 80% to 90%, and the number reached the requirement, the cells were collected, counted and inoculated.
0.2 mL (1×10^7 cells) of BT474 cells (with matrigel in a volume ratio of 1:1) were subcutaneously inoculated on the right back of each mouse. The grouping and administration were started when the average tumor volume reached about 168 mm^3. (Estrogen tablets were inoculated three days before cell inoculation).
7.3 the Preparation of the Tested Samples, Tumor Measurement, Experimental Index and Statistical Analysis were the Same as in Experimental Example 6.

HER4 (ErbB4) = HER4 (ErbB4) (Homo sapiens (Human), UniProt Q15303); test: In vitro enzyme activity, HER4 (ErbB4), [γ-33P]ATP filter assay; type: biochemical
HER4 (ErbB4), sequence (Q15303 26-1308): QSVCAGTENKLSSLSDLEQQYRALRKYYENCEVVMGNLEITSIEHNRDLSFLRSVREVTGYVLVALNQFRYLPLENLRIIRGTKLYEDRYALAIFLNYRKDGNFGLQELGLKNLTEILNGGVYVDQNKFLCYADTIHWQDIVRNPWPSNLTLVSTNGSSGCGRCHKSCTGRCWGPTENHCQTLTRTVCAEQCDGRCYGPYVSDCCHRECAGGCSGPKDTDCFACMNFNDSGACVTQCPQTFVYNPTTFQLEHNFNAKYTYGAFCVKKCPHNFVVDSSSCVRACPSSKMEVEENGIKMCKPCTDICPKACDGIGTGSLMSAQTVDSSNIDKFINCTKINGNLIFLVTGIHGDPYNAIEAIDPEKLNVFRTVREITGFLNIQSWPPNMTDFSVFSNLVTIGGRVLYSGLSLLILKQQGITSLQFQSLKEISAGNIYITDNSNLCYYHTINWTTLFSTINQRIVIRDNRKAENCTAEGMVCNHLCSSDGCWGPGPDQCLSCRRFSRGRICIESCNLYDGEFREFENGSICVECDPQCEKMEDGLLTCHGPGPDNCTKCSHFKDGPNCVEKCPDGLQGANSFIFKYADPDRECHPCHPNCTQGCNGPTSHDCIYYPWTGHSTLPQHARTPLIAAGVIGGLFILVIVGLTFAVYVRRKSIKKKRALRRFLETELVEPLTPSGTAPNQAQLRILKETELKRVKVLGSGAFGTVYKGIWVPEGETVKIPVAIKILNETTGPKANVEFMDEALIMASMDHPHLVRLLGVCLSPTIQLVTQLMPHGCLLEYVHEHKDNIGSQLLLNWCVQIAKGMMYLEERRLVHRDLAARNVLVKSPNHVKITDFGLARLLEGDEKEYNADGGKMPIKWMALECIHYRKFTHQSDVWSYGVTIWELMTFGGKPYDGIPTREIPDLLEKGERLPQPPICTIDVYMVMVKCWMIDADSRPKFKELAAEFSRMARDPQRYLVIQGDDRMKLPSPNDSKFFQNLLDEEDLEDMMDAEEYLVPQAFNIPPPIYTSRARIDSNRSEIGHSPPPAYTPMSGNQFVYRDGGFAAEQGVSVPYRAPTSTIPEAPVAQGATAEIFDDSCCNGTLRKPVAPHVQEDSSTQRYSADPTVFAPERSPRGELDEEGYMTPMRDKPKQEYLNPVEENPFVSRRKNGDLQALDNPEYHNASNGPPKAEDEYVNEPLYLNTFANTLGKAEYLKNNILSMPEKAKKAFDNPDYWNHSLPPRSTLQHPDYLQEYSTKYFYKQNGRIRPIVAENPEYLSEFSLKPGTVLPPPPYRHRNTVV
Description: as §1, with “ErbB4. Eurofins Pharma Discovery Service provided the activity detection method, and the results of the inhibitory activity of the tested compound against HER1, HER2 and HER4 were shown in Table 1.” for “ErbB4.”
as §2, §3

[4] = brain tissue, read-out: Drug concentration, brain tissue
[5] = plasma, read-out: Drug concentration, plasma
[6] = tumor tissue, read-out: Drug concentration, tumor tissue

Cc1cc(Nc2ncnn3ccc(CN4CCC(N)CC4)c23)ccc1Oc1ccn2ncnc2c1 [Example 4]
IC50 (HER1 (ErbB1)): 161 nM
clearance ([1]; plasma, rat, IV 5 mg/kg): 25.4 mL/min/kg
Vd ([1]; plasma, rat, IV 5 mg/kg, read-out: Vdss): 5.86 L/kg
bioavailability ([1]; plasma, rat, PO 50 mg/kg, read-out: F (oral bioavailability)): 49.6%
AUC(0-inf) ([1]; rat plasma, IV 5 mg/kg): 6.95 µM·h
AUC(0-t) ([1]; rat plasma, IV 5 mg/kg): 6.91 µM·h
half-life ([1]; rat plasma, IV 5 mg/kg): 3.34 h
AUC(0-inf) ([1]; rat plasma, PO 50 mg/kg): 34.9 µM·h
AUC(0-t) ([1]; rat plasma, PO 50 mg/kg): 34.3 µM·h
Cmax ([1]; rat plasma, PO 50 mg/kg): 3.63 µM
Tmax ([1]; rat plasma, PO 50 mg/kg): 3.33 h
half-life ([1]; rat plasma, PO 50 mg/kg): 3.9 h
concentration at 0.5 h [2, 4]: 0.538 µM
concentration at 1 h [2, 4]: 0.631 µM
concentration at 2 h [2, 4]: 1.01 µM
concentration at 0.5 h [2, 5]: 8.6 µM
concentration at 1 h [2, 5]: 7.58 µM
concentration at 2 h [2, 5]: 12.8 µM
concentration at 0.5 h [2, 6]: 9.45 µM
concentration at 1 h [2, 6]: 11.2 µM
concentration at 2 h [2, 6]: 21.4 µM
IC50 (CYP3A4): 32400 nM
RTV ([3]; day 20): 0.20 ± 0.02
T/C ([3]; day 20): 2.62%
TGI ([3]; day 20): 112.93%
Tumor volume ([3]; day 20 (head: Day 21), mean ± SEM): 33 mm^3 and 33 ± 3 mm^3
IC50 (HER4 (ErbB4)): 156 nM
